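Dose response: 5 concentrations. Exposure: 48 h. Format: 96-well plates. Endpoint: linear interpolation; highest concentration if not reached. TGI: total growth inhibition.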
Legend:
Assay in all cases: DTP human tumour cell line panel, 48 h
SNB-19 CNS = system: SNB-19 CNS
HOP-92 NSCLC = system: HOP-92 NSCLC
SK-MEL-2 melanoma = system: SK-MEL-2 melanoma
M14 melanoma = system: M14 melanoma
SR leukemia = system: SR leukemia
K-562 leukemia = system: K-562 leukemia
SW-620 colon = system: SW-620 colon
A549 NSCLC = system: A549 NSCLC
NCI/ADR-RES ovarian = system: NCI/ADR-RES ovarian
HT29 colon = system: HT29 colon
MOLT-4 leukemia = system: MOLT-4 leukemia

Row | Compound | TGI (SNB-19 CNS) [µM] | TGI (HOP-92 NSCLC) [µM] | TGI (SK-MEL-2 melanoma) [µM] | TGI (M14 melanoma) [µM] | TGI (SR leukemia) [µM] | TGI (K-562 leukemia) [µM] | TGI (SW-620 colon) [µM] | TGI (A549 NSCLC) [µM] | TGI (NCI/ADR-RES ovarian) [µM] | TGI (HT29 colon) [µM] | TGI (MOLT-4 leukemia) [µM]
1 | COC(=O)c1sc2ncc3c(c2c1N)CCCCCC3 | > 100 | > 100 | > 100 | > 100 | > 100 | > 100 | > 100 | > 100 | > 100 | > 100 | > 100
2 | COc1ccc2nc3ccc(OC)cc3c(SCc3ccc([N+](=O)[O-])cc3)c2c1 | > 100 | > 100 | > 100 | > 100 | > 100 | > 100 | > 100 | > 100 | > 100 | > 100 | > 100
3 | CN(CCCCN1CCCC1)CCCN(C)C(=O)Cc1ccc(Cl)c(Cl)c1 | 57.2 | 21.3 | 22.5 | 38.1 | 15.6 | 11.6 | 42.6 | 44.5 | > 100 | 18.1 | 26.5
4 | COc1c(C)c2c(c(=O)c3c(C)cccc3n2C)c2c1c(=O)c1c(C)cccc1n2C | > 10 | > 10 | > 10 | > 10 | > 10 | > 10 | – | > 10 | > 10 | > 10 | > 10
5 | CN(C)c1ccc(/C=c2/c3ccccc3n3nc4ccccc4c23)cc1 | > 100 | 90.7 | > 100 | > 100 | 25.1 | > 100 | > 100 | > 100 | > 100 | > 100 | > 100
6 | Cc1nc(Nc2ccccc2Cl)sc1C(=O)CC(=O)C(=O)Nc1c(Cl)cccc1Cl | > 100 | > 100 | 56.2 | > 100 | 68.6 | > 100 | 65.5 | > 100 | 54.1 | > 100 | 67.9
7 | c1ccc(N=C(Nc2ccccc2)N2CCCCC2)cc1 | > 100 | > 100 | > 100 | 84.9 | > 100 | > 100 | > 100 | > 100 | > 100 | > 100 | > 100
8 | Cc1ccc(C)n1-n1c(Cc2ccccc2)n[nH]c1=O | > 100 | – | > 100 | > 100 | > 100 | > 100 | > 100 | > 100 | > 100 | > 100 | > 100
9 | [O-][n+]1onc2c1CCC(=N\O)/C2=N/Nc1ccccc1 | > 100 | – | > 100 | > 100 | > 100 | > 100 | > 100 | > 100 | > 100 | > 100 | > 100
10 | Oc1cc(Br)cc2cccnc12 | > 100 | 38 | > 100 | > 37.7 | 5.92 | 8.08 | 16.9 | > 87.2 | 8.26 | 35 | 9.84
11 | O=C(CC(C(=O)c1cccs1)c1ccsc1)c1cccs1 (stereo not drawn) | > 100 | > 100 | – | – | > 100 | > 100 | > 100 | > 100 | > 100 | > 100 | > 100
12 | O=C1C(N2CCNCC2)=C(Cl)C(=O)c2ncccc21 | > 10 | 7.82 | > 10 | > 10 | > 10 | > 10 | > 10 | > 10 | – | > 10 | > 10
13 | CCOC(=O)C(/C=N\C(=S)Nc1ccc(Cl)c(Cl)c1)=C(/O)c1ccccc1 | – | – | 77.1 | > 100 | > 100 | – | > 100 | > 100 | > 100 | > 100 | > 100
14 | N=C(N)N1CCC(N2CCOCC2)CC1 | > 100 | > 100 | – | > 100 | > 100 | > 100 | > 100 | > 100 | > 100 | > 100 | > 100
15 | CC(C)(C)c1cc(-c2cc(C(C)(C)C)n(-c3ccccc3)n2)nn1-c1ccccc1 | – | > 100 | > 100 | > 100 | > 100 | > 100 | > 100 | > 100 | > 100 | > 100 | > 100
16 | C=CC(c1ccccc1)[C@@]1(OC(C)=O)C(=O)C(=O)OC1C1COC(C)(C)O1 (stereo partly drawn) | 42.7 | 15.9 | 33.4 | 25.5 | 10.2 | > 26 | 35.8 | 34.5 | 51.7 | 46.2 | 34.6
17 | CC(C)CC1C(=O)NCCC(NC(=O)C(N)Cc2ccc(O)cc2)C(=O)NC(Cc2ccccc2)C(=O)NC(Cc2ccccc2)NC1=O (stereo not drawn) | > 100 | > 100 | > 100 | > 100 | > 100 | > 100 | > 100 | > 100 | > 100 | > 100 | > 100
18 | Cc1nc2ccc(S(=O)(=O)Nc3ccccc3)cc2c(=O)n1NC(=O)CNc1ccccc1 | > 100 | > 100 | > 100 | > 100 | > 100 | > 100 | > 100 | > 100 | > 100 | > 100 | > 100
19 | COc1ccc(C(=O)Cn2c(C(=O)/C=C/c3ccco3)nc3ccccc32)cc1 | > 100 | > 100 | 51.6 | > 100 | > 100 | > 100 | > 100 | > 100 | 75.2 | > 100 | > 100
20 | COc1cc(CNc2ccc3nc4n(c(=O)c3c2)CCCCC4)cc(OC)c1OC | – | > 100 | > 100 | > 100 | > 100 | > 100 | > 100 | > 100 | > 100 | > 100 | > 100

Reference: PubChem BioAssay (NCI)
